ChEMBL document CHEMBL5370649, “Novel Coumarin Derivatives Inhibit the Quorum Sensing System and Iron Homeostasis as Antibacterial Synergists against Pseudomonas aeruginosa” (J Med Chem, 2023)
Activity calls are given as the source filed them. No cut-off for these calls is given here.

Columns and labels:
Pseudomonas aeruginosa [1] = assay: Antibacterial activity against Pseudomonas aeruginosa PAO1 in ABTGC medium assessed as bacterial growth inhibition at 1.25 to 20 uM incubated for 16 hrs; type: functional, organism-based; conditions: dose 1.25-20 µM
Pseudomonas aeruginosa [2] = assay: Antibacterial activity against Pseudomonas aeruginosa PAO1 in ABTGC medium assessed as bacterial growth inhibition incubated for 16 hrs; type: functional
[3] = Toxicity in Balb/c mouse wound infection model infected with Pseudomonas aeruginosa PAO1 assessed as morphological changes in spleen at 50 uM,TOP for 3 days in Ciprofloxacin by H and E staining based analysis; type: tissue-based; conditions: in vivo, topical_or_ocular, 72 h, time 3 day
Pseudomonas aeruginosa [4] = assay: Downregulation of rhlB expression in Pseudomonas aeruginosa PAO1 at 20 uM incubated for 24 hrs by RNA sequencing analysis; type: functional
Pseudomonas aeruginosa [5] = assay: Downregulation of trpG expression in Pseudomonas aeruginosa PAO1 at 20 uM incubated for 24 hrs by RNA sequencing analysis; type: functional
Pseudomonas aeruginosa [6] = assay: Synergistic antibacterial activity against Pseudomonas aeruginosa PAO1 infected in Balb/c mouse wound infection model assessed as reduction in bacterial survival rate at wounded area at 50 uM,TOP QD for 3 days in presence of Tobramycin by CFU assay; type: functional; conditions: time 3 day
[7] = Toxicity in Balb/c mouse wound infection model infected with Pseudomonas aeruginosa PAO1 assessed as morphological changes in heart at 50 uM,TOP for 3 days in Ciprofloxacin by H and E staining based analysis; type: tissue-based; conditions: in vivo, topical_or_ocular, 72 h, time 3 day
[8] = Toxicity in Balb/c mouse wound infection model infected with Pseudomonas aeruginosa PAO1 assessed as morphological changes in kidney at 50 uM,TOP for 3 days in Ciprofloxacin by H and E staining based analysis; type: tissue-based; conditions: in vivo, topical_or_ocular, 72 h, time 3 day
Pseudomonas aeruginosa [9] = assay: Inhibition of iron homeostasis in Pseudomonas aeruginosa PAO1 in ABTGC medium assessed as decrease in iron level at 1.25 to 20 uM in presence of FeCl3 by fluorescence based microplate reader analysis (Rvb= 9.6+/-2.00 microM); type: functional; conditions: dose 1.25-20 µM
Pseudomonas aeruginosa [10] = assay: Antibiofilm activity against Pseudomonas aeruginosa PAO1 assessed as inhibition of biofilm formation at 0.5 to 10 uM incubated for 24 hrs by SYTO9 and PI staining based 3D fluorescence confocal microscopy imaging analysis; type: functional, organism-based; conditions: dose 0.5-10 µM
[11] = Toxicity in Balb/c mouse wound infection model infected with Pseudomonas aeruginosa PAO1 assessed as morphological changes in spleen at 50 uM,TOP for 3 days in Tobramycin by H and E staining based analysis; type: tissue-based; conditions: in vivo, topical_or_ocular, 72 h, time 3 day
L02 = assay: Cytotoxicity against human L02 cells assessed as reduction in cell viability upto 50 uM incubated for 24 hrs by MTT assay; type: toxicity, cell-based; conditions: l02, 24 h
Pseudomonas aeruginosa [12] = assay: Downregulation of pilB expression in Pseudomonas aeruginosa PAO1 at 20 uM incubated for 24 hrs by RNA sequencing analysis; type: functional
Pseudomonas aeruginosa [13] = assay: Antibiofilm activity against Pseudomonas aeruginosa PAO1 fpvA-overexpressing mutant assessed as inhibition of biofilm formation at 1.25 to 20 uM incubated for 24 hrs by crystal violet staining based absorbance assay; type: functional, organism-based; conditions: dose 1.25-20 µM
Pseudomonas aeruginosa [14] = assay: Synergistic antibacterial activity against Pseudomonas aeruginosa PAO1 infected in Balb/c mouse wound infection model assessed as reduction in bacterial survival rate at wounded area at 50 uM,TOP QD for 3 days in presence of Ciprofloxacin by CFU assay; type: functional; conditions: time 3 day
[15] = Toxicity in Balb/c mouse wound infection model infected with Pseudomonas aeruginosa PAO1 assessed as morphological changes in liver at 50 uM,TOP for 3 days in Ciprofloxacin by H and E staining based analysis; type: tissue-based; conditions: in vivo, topical_or_ocular, 72 h, time 3 day
[16] = biological target: T1, Transcriptional regulator MvfR (Pseudomonas aeruginosa PA14) (UniProt A0A072ZLE6); assay: Inhibition of PqsR-mediated quorum sensing system in Pseudomonas aeruginosa PAO1 assessed as inhibition of pyocyanin production at 1.25 to 20 uM incubated for 24 hrs by absorbance based assay; conditions: dose 1.25-20 µM
T1 sequence (whole entry): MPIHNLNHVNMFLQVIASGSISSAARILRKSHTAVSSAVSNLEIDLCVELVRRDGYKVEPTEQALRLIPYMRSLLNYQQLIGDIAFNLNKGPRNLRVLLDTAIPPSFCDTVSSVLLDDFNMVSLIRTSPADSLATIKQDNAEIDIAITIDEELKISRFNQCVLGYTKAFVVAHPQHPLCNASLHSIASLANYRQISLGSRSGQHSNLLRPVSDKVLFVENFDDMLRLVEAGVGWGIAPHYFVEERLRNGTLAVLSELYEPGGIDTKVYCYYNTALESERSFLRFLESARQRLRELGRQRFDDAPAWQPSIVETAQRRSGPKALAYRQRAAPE

[17] = Toxicity in Balb/c mouse wound infection model infected with Pseudomonas aeruginosa PAO1 assessed as morphological changes in liver at 50 uM,TOP for 3 days in Tobramycin by H and E staining based analysis; type: tissue-based; conditions: in vivo, topical_or_ocular, 72 h, time 3 day
Pseudomonas aeruginosa [18] = assay: Upregulation of pvdF expression in Pseudomonas aeruginosa PAO1 at 20 uM incubated for 24 hrs by RNA sequencing analysis; type: functional
Pseudomonas aeruginosa [19] = assay: Inhibition of iron homeostasis in Pseudomonas aeruginosa PAO1 in ABTGC medium assessed as increase in iron-free pyochelin production at 1.25 to 20 uM in presence of FeCl3 by fluorescence based microplate reader analysis; type: functional, organism-based; conditions: dose 1.25-20 µM
Pseudomonas aeruginosa [20] = assay: Synergistic antibacterial activity against Pseudomonas aeruginosa PAO1 infected in Balb/c mouse wound infection model assessed as healing degree of wound at 50 uM […],TOP QD for 3 days in presence of Ciprofloxacin; type: functional, organism-based; conditions: time 3.0 day
[21] = Toxicity in Balb/c mouse wound infection model infected with Pseudomonas aeruginosa PAO1 assessed as morphological changes in heart at 50 uM,TOP for 3 days in Tobramycin by H and E staining based analysis; type: tissue-based; conditions: in vivo, topical_or_ocular, 72 h, time 3 day
Pseudomonas aeruginosa [22] = assay: Downregulation of pilI expression in Pseudomonas aeruginosa PAO1 at 20 uM incubated for 24 hrs by RNA sequencing analysis; type: functional
[23] = Toxicity in Zebrafish embryo assessed as survival rate of zebrafish larvae at 10 to 200 uM and mesured upto 120 hrs post fertilization; set-up: species or system Danio rerio; conditions: in vivo, dose 10-200 µM
[24] = Toxicity in Balb/c mouse wound infection model infected with Pseudomonas aeruginosa PAO1 assessed as body weight change at 50 uM,TOP for 3 days in Tobramycin; conditions: in vivo, topical_or_ocular, 72 h, time 3 day
Pseudomonas aeruginosa [25] = assay: Downregulation of rhl expression in Pseudomonas aeruginosa PAO1 at 20 uM incubated for 24 hrs by RNA sequencing analysis; type: functional

## Cc1ccc2oc(=O)cc(OCCCCCCC(=O)NO)c2c1
Pseudomonas aeruginosa [1]
  Activity: inactive
Pseudomonas aeruginosa [2]
  MIC: > 256 µM
[3]
  Activity: Non-Toxic
Pseudomonas aeruginosa [4]
  Activity: Active
Pseudomonas aeruginosa [5]
  Activity: Active
Pseudomonas aeruginosa [6]
  Activity: 1.78%
[7]
  Activity: Non-Toxic
[8]
  Activity: Non-Toxic
Pseudomonas aeruginosa [9]
  Activity: 6.96 µM
Pseudomonas aeruginosa [10]
  inhibition: Active
[11]
  Activity: Non-Toxic
L02
  Activity: Non-Toxic
Pseudomonas aeruginosa [12]
  Activity: Active
Pseudomonas aeruginosa [13]
  inhibition: inactive
Pseudomonas aeruginosa [14]
  Activity: 3.19%
[15]
  Activity: Non-Toxic
[16]
  inhibition: Dose-Dependent Effect
[17]
  Activity: Non-Toxic
Pseudomonas aeruginosa [18]
  Activity: Active
Pseudomonas aeruginosa [19]
  inhibition: Active
Pseudomonas aeruginosa [20]
  Activity: Active
[21]
  Activity: Non-Toxic
Pseudomonas aeruginosa [22]
  Activity: Active
[23]
  Activity: Non-Toxic
[24]
  Activity: Non-Toxic
Pseudomonas aeruginosa [25]
  Activity: Active
